No end group written: not given here.
Each substance was assayed against T1, human Nav1.7 (Homo sapiens, UniProt Q15858, W1161R).
T1 construct: expressed in transfected cells
Format: cell-based
With “GPCCNCSSKWCRDHSRCCGRGSAPAPAPAPAPAPAPAPAPAPGSQCQKWMQTCDAERKCCEGFVCRLWCKKKLW [NV1D3260]” the IC50 was 0.0576 µM. In the case of “GPCCNCSSKWCRDHSRCCGRGSAPAPAPAPAPAPAPAPAPAPGSQCQKWMQTCDRERKCCEGFVCTLWCRKKLW [NV1D3793]”, the IC50 is reported as 0.0646 µM. “GPCCNCSSKWCRDHSRCCGRGSAPAPAPAPAPGSQCQKWMQTCDAERKCCEGFVCRLWCKKKLW [NV1D3256]” gave an IC50 of 0.0557 µM. Substance “GPCCNCSSKWCRDHSRCCGRGSGGGGSAPAPAPAPAPAPAPAPAPAPGGGGSGSQCQKWMQTCDRERKCCEGFVCTLWCRKKLW [NV1D3830]” has an IC50 of 0.0886 µM. With “GPCCNCSSKWCRDHSRCCGSAPAPAPAPAPAPAPAPAPAPGSQCQKWMQTCDAERKCCEGFVCRLWCKKKLW [NV1D3262]” the IC50 was 0.0892 µM. “GPCCNCSSKWCRDHSRCCGSAPAPAPAPAPAPAPAPAPAPGSQCQKWMQTCDRERKCCEGFVCTLWCRKKLW [NV1D3795]” gave an IC50 of 0.1 µM. “GPCCNCSSKWCRDHSRCCGSAPAPAPAPAPGSQCQKWMQTCDRERKCCEGFVCTLWCRKKLW [NV1D3796]” was tested, and the IC50 was 0.11 µM. “GPCRTIGPSVCAPAPAPAPAPAPAPAPAPAPQCQKWMQTCDRERKCCEGFVCTLWCRKKLW [NV1D3832]” showed an IC50 of 0.0884 µM. With “GPGWCGDPGATCGKLRLYCCSGFCDAYTKTCKDKSSAGGGGSAPAPAPAPAPAPAPAPAPAPAPAPAPAPAPGGGGSQCQKWMQTCDRERKCCEGFVCTLWCRKKLW [NV1D3824]” the IC50 was 0.11 µM. Substance “GPGWCGDPGATCGKLRLYCCSGFCDSYTKTCKDKSSAGGGGSAPAPAPAPAPAPAPAPAPAPAPAPAPAPAPGGGGSQCQKWMQTCDRERKCCEGFVCTLWCRKKLW [NV1D3822]” has an IC50 of 0.0742 µM. Work on “GPQCQKWMQTCDAERKCCEGFVCRLWCKKKLWGSAPAPAPAPAPAPAPAPAPAPGSCCNCSSKWCRDHSRCCGR [NV1D3259]” yielded an IC50 of 0.0549 µM. “GPQCQKWMQTCDRERKCCEGFVCTLWCRKKLWGGGGSAPAPAPAPAPAPAPAPAPAPAPAPAPAPAPGGGGSGWCGDPGATCGKLRLYCCSGFCDAYTKTCKDKSSA [NV1D3825]” gave an IC50 of 0.194 µM. Work on “GPQCQKWMQTCDRERKCCEGFVCTLWCRKKLWGSAPAPAPAPAPAPAPAPAPAPGSCCNCSSKWCRDHSRCC [NV1D3797]” yielded an IC50 of 0.0911 µM. In the case of “GPQCQKWMQTCDRERKCCEGFVCTLWCRKKLWGSAPAPAPAPAPAPAPAPAPAPGSCCNCSSKWCRDHSRCCGR [NV1D3798]”, the IC50 is reported as 0.0945 µM. For “GPQCQKWMQTCDRERKCCEGFVCTLWCRKKLWGSAPAPAPAPAPGSCCNCSSKWCRDHSRCC [NV1D3799]”, the IC50 was 0.0506 µM. “GPQCQKWMQTCDRERKCCEGFVCTLWCRKKLWGSAPAPAPAPAPGSCCNCSSKWCRDHSRCCGR [NV1D3800]” gave an IC50 of 0.0609 µM. “GPQCQKWMQTCDRERKCCEGFVCTLWCRKKLWGSGGGGSAPAPAPAPAPAPAPAPAPAPGGGGSGSCCNCSSKWCRDHSRCC [NV1D3829]” showed an IC50 of 0.122 µM. Substance “GPQCQKWMQTCDRERKCCEGFVCTLWCRKKLWGSGGGGSAPAPAPAPAPAPAPAPAPAPGGGGSGSCCNCSSKWCRDHSRCCGR [NV1D3828]” has an IC50 of 0.0875 µM. “GPSHSNTQTLAKAPEHTGAPAPAPAPAPAPAPAPAPAPQCQKWMQTCDRERKCCEGFVCTLWCRKKLW [NV1D3774]” showed an IC50 of 0.0886 µM.

These substances were tested against T2, human Nav1.6 (Homo sapiens, UniProt Q9UQD0).
T2 construct: expressed in transfected cells
T2 sequence (Q9UQD0 whole entry): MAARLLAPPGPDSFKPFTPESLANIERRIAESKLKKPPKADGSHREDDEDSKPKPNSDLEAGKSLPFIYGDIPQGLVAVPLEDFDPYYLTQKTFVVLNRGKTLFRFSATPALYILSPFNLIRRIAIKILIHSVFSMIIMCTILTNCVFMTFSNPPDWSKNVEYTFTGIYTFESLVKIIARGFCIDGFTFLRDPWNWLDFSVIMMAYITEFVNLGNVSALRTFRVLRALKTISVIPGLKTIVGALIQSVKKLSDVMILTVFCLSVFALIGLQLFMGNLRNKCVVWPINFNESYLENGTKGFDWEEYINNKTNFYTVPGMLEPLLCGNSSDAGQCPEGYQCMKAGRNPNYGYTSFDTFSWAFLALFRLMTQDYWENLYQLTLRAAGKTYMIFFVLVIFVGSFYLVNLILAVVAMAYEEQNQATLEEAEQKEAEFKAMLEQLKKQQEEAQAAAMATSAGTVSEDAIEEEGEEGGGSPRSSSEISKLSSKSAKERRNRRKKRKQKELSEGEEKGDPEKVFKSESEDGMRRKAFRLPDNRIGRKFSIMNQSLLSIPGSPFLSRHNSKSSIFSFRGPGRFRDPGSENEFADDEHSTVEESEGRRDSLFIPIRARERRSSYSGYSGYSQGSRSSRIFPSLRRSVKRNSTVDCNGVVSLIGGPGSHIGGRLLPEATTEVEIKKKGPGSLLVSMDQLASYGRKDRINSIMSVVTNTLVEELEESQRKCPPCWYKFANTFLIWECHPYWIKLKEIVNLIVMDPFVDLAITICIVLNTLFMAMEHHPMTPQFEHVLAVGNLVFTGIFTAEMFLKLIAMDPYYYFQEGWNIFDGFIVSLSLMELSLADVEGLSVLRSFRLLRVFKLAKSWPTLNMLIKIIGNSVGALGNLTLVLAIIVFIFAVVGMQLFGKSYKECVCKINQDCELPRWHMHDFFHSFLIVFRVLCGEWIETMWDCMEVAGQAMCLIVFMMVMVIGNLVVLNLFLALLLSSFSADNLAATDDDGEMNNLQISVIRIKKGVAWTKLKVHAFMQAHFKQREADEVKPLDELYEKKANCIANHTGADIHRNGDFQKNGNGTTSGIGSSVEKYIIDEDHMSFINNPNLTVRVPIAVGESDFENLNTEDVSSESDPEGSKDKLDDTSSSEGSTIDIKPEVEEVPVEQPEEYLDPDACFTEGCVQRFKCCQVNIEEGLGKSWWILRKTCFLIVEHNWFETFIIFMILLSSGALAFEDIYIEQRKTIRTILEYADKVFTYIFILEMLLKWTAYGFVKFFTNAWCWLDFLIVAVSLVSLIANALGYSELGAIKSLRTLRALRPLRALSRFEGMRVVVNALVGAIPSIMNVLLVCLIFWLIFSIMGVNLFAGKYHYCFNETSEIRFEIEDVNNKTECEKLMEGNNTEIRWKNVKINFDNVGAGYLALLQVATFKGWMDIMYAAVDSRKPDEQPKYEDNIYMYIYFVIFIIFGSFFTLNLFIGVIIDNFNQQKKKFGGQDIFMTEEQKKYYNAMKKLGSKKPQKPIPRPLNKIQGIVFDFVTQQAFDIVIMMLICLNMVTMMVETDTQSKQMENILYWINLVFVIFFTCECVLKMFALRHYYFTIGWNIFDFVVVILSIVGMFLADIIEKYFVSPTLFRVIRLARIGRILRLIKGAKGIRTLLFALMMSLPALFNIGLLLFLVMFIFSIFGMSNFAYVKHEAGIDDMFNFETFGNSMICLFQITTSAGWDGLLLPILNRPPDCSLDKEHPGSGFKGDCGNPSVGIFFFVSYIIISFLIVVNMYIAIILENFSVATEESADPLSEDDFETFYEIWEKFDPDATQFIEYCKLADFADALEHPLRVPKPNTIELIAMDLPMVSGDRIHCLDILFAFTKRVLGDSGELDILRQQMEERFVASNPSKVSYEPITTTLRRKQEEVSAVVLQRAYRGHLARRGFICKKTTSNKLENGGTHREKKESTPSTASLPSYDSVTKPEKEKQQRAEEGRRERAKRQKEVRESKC
Format: cell-based
With “Ac-QCQKWMQTCDAERKCCEGFSCTLWCKKKLW-NH2 [(-GP) N-Ac-NV1D2974-NH2]” the “selectivity for Nav1.7 compared to recombinant Protoxin-II” value (“selectivity” for short) was “improved selectivity”. For “Ac-QCQKWMQTCDRERKCCEGFVCTLWCRKKLW-NH2 [(-GP) N-Ac-NV1D3034-NH2]”, the “selectivity” value was “improved selectivity”. “GPACQKWMQTCDANRKCCEGFSCRLWCKKKLW-OH (cysteine pairing not given here) [NV1D3587]” was tested, and the “selectivity” value was “improved selectivity”. “GPACQKWMQTCDRNRKCCEGFVCTLWCRKKLW-OH (cysteine pairing not given here) [NV1D3541]” was tested, and the “selectivity” value was “improved selectivity”. For “GPQCQKWMQSCDRERKCCEGFVCTLWCRKKLW-OH (cysteine pairing not given here) [NV1D3359]”, the “selectivity” value was “improved selectivity”. With “GPQCQKWMQTCDAERKCCEGFSCTLWCKKKLW-NH2 [NV1D2974-NH2]” the “selectivity” value was “improved selectivity”. “GPQCQKWMQTCDAERKCCEGFSCTLWCKKKLW-OH (cysteine pairing not given here) [NV1D2974]” was tested, and the “selectivity” value was “improved selectivity”. With “GPQCQKWMQTCDAERKCCEGFVCRLWCKKKLW-NH2 [NV1D2775-NH2]” the “selectivity” value was “improved selectivity”. “GPQCQKWMQTCDARRKCCEGFVCRLWCKKKLW-OH (cysteine pairing not given here) [NV1D3006]” was tested, and the “selectivity” value was “improved selectivity”. With “GPQCQKWMQTCDRERKCCEGFVCTLWCRKKLW-NH2 [NV1D3034-NH2]” the “selectivity” value was “improved selectivity”. For “GPQCQKWMQTCDRERKCCEGFVCTLWCRKKLW-NH-butyl [NV1D3034-NH-butyl]”, the “selectivity” value was “improved selectivity”. With “GPQCQKWMQTCDRERKCCQGFVCTLWCRKKLW-OH (cysteine pairing not given here) [NV1D3388]” the “selectivity” value was “improved selectivity”. With “GPQCQKWMQTCDRNRKCCEGFVCTLWCRKKLW-OH (cysteine pairing not given here) [NV1D3044]” the “selectivity” value was “improved selectivity”. In the case of “GPRCQKWMQTCDAERKCCEGFVCRLWCKKKLW-OH (cysteine pairing not given here) [NV1D2772]”, the “selectivity” value is reported as “improved selectivity”. In the case of “GPYCQKWMQTCDANRKCCEGFSCRLWCKKKLW-NH2 [NV1D3586-NH2]”, the “selectivity” value is reported as “improved selectivity”. For “GPYCQKWMQTCDANRKCCEGFSCRLWCKKKLW-OH (cysteine pairing not given here) [NV1D3586]”, the “selectivity” value was “improved selectivity”.

From US9624280B2 (JANSSEN BIOTECH, INC., priority 2013, dated 2017)
